Data from patent publication US12098145B2 (Libra Therapeutics, Inc., priority 2022, dated 2024).
Counter-ions that a name gives are not always drawn. Like-named read-outs stand apart in the source and are kept apart here.

How the values were obtained:
[1] = target: T1, TRPML1 (Homo sapiens, UniProt Q9GZU1); assay: Cellular TRPML1 assay (FLIPR, GCaMP6f calcium read-out); format: cell-based
T1 construct: expressed in transfected cells; host or cells: HEK T-REx cells stably expressing GCaMP6f and TRPML1
How it was run: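 Read-out is GCaMP6f fluorescence over 300 s after compound addition in Ca2+-free Tyrode's buffer, final DMSO 0.5%, on FLIPR Tetra. Cells are HEK T-REx stably co-expressing the indicator and TRPML1, plated 24 h earlier in Optimem + 0.5% FBS and pre-incubated ~10 min at room temperature.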

[2] = tested on: TFEB; assay: TFEB translocation assay (TFEB reporter in U2OS cells, imaging); format: cell-based; conditions: Homo sapiens, read-out: TFEB Translocation pEC50 (converted)
How it was run: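 Activity expresses the mean nuclear-to-cytosolic reporter ratio scaled between DMSO (0%) and Torin-1 (100%) controls. Read-out came from high-content imaging of fixed, Hoechst-counterstained U2OS cells carrying mRFP-tagged TFEB after 2 h compound exposure at 37 °C in Opti-MEM with 0.015% Tween 80 and 0.5% DMSO.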

[3] = HEKT-REx/GCaMP6f/TRPML1 cells, FLIPR TETRA, kinetic response over 300 seconds, read-out: TRPML1 FLIPR pEC50 (converted)
[4] = U2OS cell line with TFEB reporter, 2 hours incubation, nucleus to cytoplasm ratio, normalized to Torin-1

T1 sequence (Q9GZU1 whole entry): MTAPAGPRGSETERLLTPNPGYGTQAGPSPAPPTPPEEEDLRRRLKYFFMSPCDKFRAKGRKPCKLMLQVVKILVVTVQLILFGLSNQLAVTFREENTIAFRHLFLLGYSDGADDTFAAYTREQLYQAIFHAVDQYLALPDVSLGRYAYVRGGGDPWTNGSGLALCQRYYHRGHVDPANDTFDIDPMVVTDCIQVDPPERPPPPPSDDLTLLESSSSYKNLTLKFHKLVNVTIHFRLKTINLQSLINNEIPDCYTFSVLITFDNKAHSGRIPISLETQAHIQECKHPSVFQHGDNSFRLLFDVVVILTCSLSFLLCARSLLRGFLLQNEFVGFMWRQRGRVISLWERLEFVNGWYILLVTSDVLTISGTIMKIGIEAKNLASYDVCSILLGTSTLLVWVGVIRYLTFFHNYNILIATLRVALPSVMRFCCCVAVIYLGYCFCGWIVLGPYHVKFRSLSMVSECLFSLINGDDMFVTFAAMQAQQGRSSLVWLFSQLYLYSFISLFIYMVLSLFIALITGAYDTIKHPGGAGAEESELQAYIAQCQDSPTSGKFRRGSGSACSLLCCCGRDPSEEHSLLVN

SMILES | EC50 [1, 3] [µM] | EC50 [2, 4] [µM] | EC50 [1] [µM] | EC50 ([2]; U2OS, 2 h) [µM]
CCC1(CC)CN(c2nc(C(=O)Nc3cc(O)c(O[C@@H]4C[C@@H]5C[C@@H]5C4)c(F)c3)c(CC(F)(F)F)o2)C1 [Example 269, N-(4-(cis-bicyclo[3.1.0]hexan-3-yloxy)-3-fluoro-5-hydroxyphenyl)-2-(3,3-diethylazetidin-1-yl)-5-(2,2,2-trifluoroethyl)oxazole-4-carboxamide] | 0.01 to 1 | 0.01 to 1 |  | 
CCC1(CC)CN(c2nc(C(=O)Nc3cc(F)c(OC4CC5C[C@H]5C4)c(F)c3)c(COC)o2)C1 (stereo partly drawn) [Example 295, N-(4-(cis-bicyclo[3.1.0]hexan-3-yloxy)-3,5-difluorophenyl)-2-(3,3-diethylazetidin-1-yl)-5-(methoxymethyl)oxazole-4-carboxamide] | 0.01 to 1 | 0.01 to 1 |  | 
O=C(Nc1ccc(OC2CCCC2)c(F)c1)c1nc(N2CCC3(COC3)C2)oc1CC(F)(F)F [Example 64, N-(4-(cyclopentyloxy)-3-fluorophenyl)-2-(2-oxa-6-azaspiro[3.4]octan-6-yl)-5-(2,2,2-trifluoroethyl)oxazole-4-carboxamide] | 1 to 10 | 1 to 10 |  | 
O=C(Nc1cc(F)c(O[C@@H]2C[C@@H]3C[C@@H]3C2)c(F)c1)c1nc(N2CCCC2)oc1CN1CCCC1 [Example 308, N-(4-(cis-bicyclo[3.1.0]hexan-3-yloxy)-3,5-difluorophenyl)-2-(pyrrolidin-1-yl)-5-(pyrrolidin-1-ylmethyl)oxazole-4-carboxamide hydrochloride] | 0.01 to 1 | 0.01 to 1 |  | 
CN(c1ccc(NC(=O)c2nc(N3CCCC3)oc2CC(F)(F)F)cc1F)C1CCCC1(F)F (stereo not shown) [Example 82, N-{4-[(2,2-difluorocyclopentyl)(methyl)amino]-3-fluorophenyl}-2-(pyrrolidin-1-yl)-5-(2,2,2-trifluoroethyl)oxazole-4-carboxamide] | 1 to 10 | 0.01 to 1 |  | 
O=C(Nc1ccc(O[C@@H]2C[C@@H]3C[C@@H]3C2)c(F)c1)c1nc(N2CCC3CCCC32)oc1CC(F)(F)F (stereo partly drawn) [Example 162, N-(4-(cis-bicyclo[3.1.0]hexan-3-yloxy)-3-fluorophenyl)-2-(hexahydrocyclopenta[b]pyrrol-1(2H)-yl)-5-(2,2,2-trifluoroethyl)oxazole-4-carboxamide] | 0.01 to 1 | 0.01 to 1 |  | 
COC1(C)CN(c2nc(C(=O)Nc3cc(C)c(OC4CC5CC(C5)C4)c(F)c3)c(CCF)o2)C1 (stereo not shown) [Example 281, N-(4-(bicyclo[3.1.1]heptan-3-yloxy)-3-fluoro-5-methylphenyl)-5-(2-fluoroethyl)-2-(3-methoxy-3-methylazetidin-1-yl)oxazole-4-carboxamide] | 0.01 to 1 | 0.01 to 1 |  | 
COC1(C)CN(c2nc(C(=O)Nc3cc(C)c(N4C5CCCC4CC5)c(F)c3)c(CCF)o2)C1 [Example 290] |  | 0.01 to 1 | 0.01 to 1 | 
CCc1oc(N2CC(CC)(OC)C2)nc1C(=O)Nc1cc(F)c(O[C@@H]2C[C@@H]3C[C@@H]3C2)c(F)c1 [Example 238, N-(4-(cis-bicyclo[3.1.0]hexan-3-yloxy)-3,5-difluorophenyl)-5-ethyl-2-(3-ethyl-3-methoxyazetidin-1-yl)oxazole-4-carboxamide] | 0.01 to 1 | 0.01 to 1 |  | 
CCc1oc(N2CC(CC)(OC)C2)nc1C(=O)Nc1cc(F)c(OC2CC3CC(C3)C2)c(F)c1 (stereo not shown) [Example 230, N-(4-(bicyclo[3.1.1]heptan-3-yloxy)-3,5-difluorophenyl)-5-ethyl-2-(3-ethyl-3-methoxyazetidin-1-yl)oxazole-4-carboxamide] | 0.01 to 1 | 0.01 to 1 |  | 
CC1(C)CCCN1c1nc(C(=O)Nc2cc(F)c(O[C@@H]3C[C@@H]4C[C@@H]4C3)c(F)c2)c(CC(F)(F)F)o1 [Example 172, N-(4-(cis-bicyclo[3.1.0]hexan-3-yloxy)-3,5-difluorophenyl)-2-(2,2-dimethylpyrrolidin-1-yl)-5-(2,2,2-trifluoroethyl)oxazole-4-carboxamide] | 0.01 to 1 | 0.01 to 1 |  | 
O=C(Nc1cc(F)c(O[C@@H]2C[C@@H]3C[C@@H]3C2)c(F)c1)c1nc(N2CCC3OCCC32)oc1CC(F)(F)F (stereo partly drawn) [Example 157, N-(4-(cis-bicyclo[3.1.0]hexan-3-yloxy)-3,5-difluorophenyl)-2-(hexahydro-4H-furo[3,2-b]pyrrol-4-yl)-5-(2,2,2-trifluoroethyl)oxazole-4-carboxamide] | 0.01 to 1 | 0.01 to 1 |  | 
CCC1(CC)CN(c2nc(C(=O)Nc3cc(C)c(O[C@@H]4C[C@@H]5C[C@@H]5C4)c(O)c3)c(CC(F)(F)F)o2)C1 [Example 262, N-(4-(cis-bicyclo[3.1.0]hexan-3-yloxy)-3-hydroxy-5-methylphenyl)-2-(3,3-diethylazetidin-1-yl)-5-(2,2,2-trifluoroethyl)oxazole-4-carboxamide] | 0.01 to 1 | 0.01 to 1 |  | 
CCC1(OC)CN(c2nc(C(=O)Nc3cc(F)c(OC4CC5CC(C5)C4)c(F)c3)c(CC(F)(F)F)o2)C1 (stereo not shown) [Example 148, N-(4-(bicyclo[3.1.1]heptan-3-yloxy)-3,5-difluorophenyl)-2-(3-ethyl-3-methoxyazetidin-1-yl)-5-(2,2,2-trifluoroethyl)oxazole-4-carboxamide] | 0.01 to 1 | 0.01 to 1 |  | 
O=C(Nc1ccc(OC2CCOC2)c(F)c1)c1nc(N2CCCC2)oc1CC(F)(F)F (stereo not shown) [Example 47, N-[3-fluoro-4-(oxolan-3-yloxy)phenyl]-2-(pyrrolidin-1-yl)-5-(2,2,2-trifluoroethyl)oxazol-4-carboxamide] | 1 to 10 | 1 to 10 |  | 
CCc1oc(N2CCCC2)nc1C(=O)Nc1cc(F)c(N2CC3CC(C3)C2)c(F)c1 [Example 255, N-(4-(3-azabicyclo[3.1.1]heptan-3-yl)-3,5-difluorophenyl)-5-ethyl-2-(pyrrolidin-1-yl)oxazole-4-carboxamide] |  | 0.01 to 1 | 0.01 to 1 | 
COC1(C)CN(c2nc(C(=O)Nc3cc(F)c(N4C5CCCC4CC5)c(F)c3)c(CC(F)(F)F)o2)C1 [Example 207, N-(4-(8-azabicyclo[3.2.1]octan-8-yl)-3,5-difluorophenyl)-2-(3-methoxy-3-methylazetidin-1-yl)-5-(2,2,2-trifluoroethyl)oxazole-4-carboxamide] |  | 0.01 to 1 | 0.01 to 1 | 
O=C(Nc1ccc(O[C@@H]2CC3C[C@@H]3C2)c(F)c1)c1nc(N2CCC3CC32)oc1CC(F)(F)F (stereo partly drawn) [Example 154, 2-(2-azabicyclo[3.1.0]hexan-2-yl)-N-(4-(cis-bicyclo[3.1.0]hexan-3-yloxy)-3-fluorophenyl)-5-(2,2,2-trifluoroethyl)oxazole-4-carboxamide] | 0.01 to 1 | 0.01 to 1 |  | 
CCOCc1oc(N2CCCC2)nc1C(=O)Nc1ccc(N2CCCCC2)c(F)c1 [Example 100, 5-(ethoxymethyl)-N-[3-fluoro-4-(piperidin-1-yl)phenyl]-2-(pyrrolidin-1-yl)oxazole-4-carboxamide] | 1 to 10 | 1 to 10 |  | 
O=C(Nc1ccc(N2CCCCC2)c(O)c1)c1nc(N2CCCC2)oc1CC(F)(F)F [Example 84, N-(3-hydroxy-4-(piperidin-1-yl)phenyl)-2-(pyrrolidin-1-yl)-5-(2,2,2-trifluoroethyl)oxazole-4-carboxamide] | 1 to 10 | 10 to 100 |  | 
COC1(C)CN(c2nc(C(=O)Nc3cc(F)c(O[C@@H]4C[C@@H]5C[C@@H]5C4)c(F)c3)c(CC(F)(F)F)o2)C1 [Example 178, N-(4-(cis-bicyclo[3.1.0]hexan-3-yloxy)-3,5-difluorophenyl)-2-(3-methoxy-3-methylazetidin-1-yl)-5-(2,2,2-trifluoroethyl)oxazole-4-carboxamide] | 0.01 to 1 | 0.01 to 1 |  | 
O=C(Nc1ccc(OC2CCCCC2(F)F)c(F)c1)c1nc(N2CCCC2)oc1CC(F)(F)F (stereo not shown) [Example 76, N-{4-[(2,2-difluorocyclohexyl)oxy]-3-fluorophenyl}-2-(pyrrolidin-1-yl)-5-(2,2,2-trifluoroethyl)oxazole-4-carboxamide] | 0.01 to 1 | 0.01 to 1 |  | 
Cc1cc(NC(=O)c2nc(N3CC(C)(CO)C3)oc2CC(F)(F)F)cc(F)c1OC1CC2CC(C2)C1 (stereo not shown) [Example 129, N-(4-(bicyclo[3.1.1]heptan-3-yloxy)-3-fluoro-5-methylphenyl)-2-(3-(hydroxymethyl)-3-methylazetidin-1-yl)-5-(2,2,2-trifluoroethyl)oxazole-4-carboxamide] | 0.01 to 1 | 0.01 to 1 |  | 
O=C(Nc1cc(F)c(OC2CC3C[C@H]3C2)c(F)c1)c1nc(N2CCC3(CC3)C2)oc1CC(F)(F)F (stereo partly shown) [Example 38] | 0.01 to 1 | 0.01 to 1 |  | 
CCN(C)Cc1oc(N2CC(CC)(OC)C2)nc1C(=O)Nc1cc(O)c(OC2CC3CC(C3)C2)c(F)c1 (stereo not shown) [Example 309, N-(4-(bicyclo[3.1.1]heptan-3-yloxy)-3-fluoro-5-hydroxyphenyl)-5-((ethyl(methyl)amino)methyl)-2-(3-ethyl-3-methoxyazetidin-1-yl)oxazole-4-carboxamide] | 1 to 10 |  |  | 1 to 10
O=C(Nc1cc(F)c2c(c1)CCN2C1CC2CC2C1)c1nc(N2CCCC2)oc1CC(F)(F)F (stereo not shown) [Example 315, N-(1-(bicyclo[3.1.0]hexan-3-yl)-7-fluoroindolin-5-yl)-2-(pyrrolidin-1-yl)-5-(2,2,2-trifluoroethyl)oxazole-4-carboxamide] | 1 to 10 | 0.01 to 1 |  | 
